These results are taken from paper PMC8998904, “Identification and New Indication of Melanin-Concentrating Hormone Receptor 1 (MCHR1) Antagonist Derived from Machine Learning and Transcriptome-Based Drug Repositioning Approaches” (International Journal of Molecular Sciences, 2022).

Series [1] deals with A375, A549, MCF7 and PC3 cells. The series can be described thus: mRNA gene expression (transcriptome, DEG) analysis in four cell lines. The class given is cell-based, human. To be noted: 10 μM, 6 h; common gene of four cell lines. As for the experimental part:
Transcriptome analysis was performed to identify new indications of KRX-104130. For each of the four cell lines, human skin malignant melanoma cells (A375), human lung carcinoma cells (A549), human breast carcinoma cells (MCF7), and human prostate adenocarcinoma cells (PC3), 10 μM of KRX-104130 was administered for 6 h in the control and treatment groups. As an independent experiment was performed three times, considering the error, the average value was used for comparison. The change in gene expression levels was calculated by dividing the […]. Fold change (FC) was expressed as a positive or negative value when the gene expression value of the treatment group was greater or lower than that of the control group, respectively.
Four cell lines were used for the cell culture: A375, A549, MCF7, and PC3, purchased from the American Type Culture Collection (ATCC, Rockville, MD, USA). The A375 and A549 cells were cultured in RPMI-1640 medium supplemented with 10% fetal bovine serum (FBS) and 1% penicillin-streptomycin-glutamine. The MCF7 cells were cultured in Dulbecco’s modified Eagle’s medium (DMEM) with 10% FBS and 1% penicillin-streptomycin-glutamine. The PC3 cells were cultured in RPMI with 10% FBS, 1% penicillin-streptomycin-glutamine, 1 mM sodium pyruvate, and 10 mM HEPES. KRX-104130 was synthesized at the Research Center for Medicinal Chemistry, Korea Research Institute of Chemical Technology (KRICT, Daejeon, Korea).
After releasing the stock, the cells were used in the experiments and cultured for two weeks to stabilize. KRX-104130 was dissolved in dimethylsulfoxide (DMSO) to form a 10 mM stock solution and stored in a deep freezer (−80 °C). Six sheets were seeded in each of the four cell lines, three sheets of DMSO and KRX-104130 (DMSO × 3 and KRX-104130 × 3), and they were stored in an incubator for 24 h. Cells were plated at 1.1375 × 10^6 cells for A375, 1.3 × 10^6 cells for A549, 8.45 × 10^5 cells for MCF7, and 1.496 × 10^6 cells for PC3 under the culture conditions. After 24 h, DMSO and KRX-104130 were diluted 1000-fold in the medium, and the cells were treated with a final concentration of 0.1% DMSO and 10 μM KRX-104130. After 6 h, the medium was removed, and the cells were collected by treatment with 1 mL of TRIzol. After destroying the cells by pipetting, they were stored in a deep freezer (−80 °C).
The total RNA samples were assessed using the Clariom™ S Assay Human Platform. cDNA was synthesized using the GeneChip WT (Whole Transcript) Amplification Kit as described by the manufacturer. The sense cDNA was then fragmented and biotin-labeled with terminal deoxynucleotidyl transferase (TdT) using the GeneChip WT Terminal labeling kit. Approximately 5.5 μg of labeled DNA target was hybridized to the Affymetrix GeneChip Array at 45 °C for 16 h. The hybridized arrays were washed and stained on a GeneChip Fluidics Station 450 and scanned using a GCS3000 scanner. Probe cell intensity data computation and CEL file generation were performed using Affymetrix® GeneChip Command Console® Software version 6.0+ (AGCC, www.thermofisher.com/kr/ko/home/life-science/microarray-analysis/microarray-analysis-instruments-software-services/microarray-analysis-software/affymetrix-genechip-command-console-software.html, accessed on 1 September 2021). The CEL file is a binary format that contains the intensity calculated result for the pixel values of the DAT file and is used to extract normalized intensity to be used for actual analysis in Affymetrix® Power Tools version 2.11.4 (APT, www.thermofisher.com/kr/en/home/life-science/microarray-analysis/microarray-analysis-partners-programs/affymetrix-developers-network/affymetrix-power-tools.html, accessed on 1 September 2021). […]

Series [2] is described as follows: Plasma pharmacokinetic profile in mice (I.V. and P.O.). To be noted: for AUC(0-t): AUC0–t, n=3.
The test system of the next series is LDLR. The series can be described thus: Western blot assay of LDLR protein expression in HepG2 cells. Type of series: cell-based, human. To be noted: HepG2 cells, 3, 10 and 30 μM. As to the method:
To validate that KRX-104130 increased the LDLR gene expression through the DEG analysis, LDLR mRNA expression was investigated in KRX-104130–treated HepG2 cells.
The protein expression levels of LDLR in the HepG2 cells were determined by Western blot assay at Cosmo Genetech (Sungsoo, Seoul, Korea). Briefly, cell protein extracts were prepared using radioimmunoprecipitation assay buffer (Thermo Scientific, Pierce, Rockford, IL, USA). Twenty micrograms of protein lysate were separated by electrophoresis on a 10% sodium dodecyl-sulfate (SDS)-polyacrylamide gel electrophoresis (PAGE) gel (Bio-Rad, Hercules, CA, USA) and transferred to a nitrocellulose membrane (Hybond-C Extra; GE Healthcare, Piscataway, NJ, USA). Nonspecific binding was blocked with 5% milk and incubated with 1:1000 primary antibody (LDLR Rabbit-mAb, #ab52818, Abcam) overnight at 4 °C. The secondary antibodies (horseradish peroxidase [HRP]-conjugated mouse anti-rabbit IgG, #SC-2357, Santa Cruz) were diluted 1:3000 in a fresh blocking solution. Protein bands were detected using the SuperSignal West Femto Kit (Thermo Fisher Scientific Inc., Waltham, MA, USA).

Molecules are shown by their SMILES.

`COc1nc2cc(F)c(F)cc2nc1NC(=O)NC1CCN(Cc2cc3ccccc3[nH]2)CC1` [KRX-104130]: in series [1], the “Fold change (FC) CCNE2” value is reported as −1.96, the “Fold change (FC) DNAJB9” value was found to be 3.50, the “Fold change (FC) HERPUD1” value stood at 3.17 and the “Fold change (FC) HSD17B7” value is reported as 2.22. In series [1], the “Fold change (FC) INSIG1” value is reported as 2.85, the “Fold change (FC) LDLR” value came to 2.79, the “Fold change (FC) MSMO1” value is recorded as 3.09 and the “Fold change (FC) TIPARP” value is on record as 3.98. For the same molecule, the “Tolerability / death after administration to mice” value in series [2] (mice, pharmacokinetic study) was “without specific abnormalities”. Further, in series [2] (mouse, plasma, iv, 10 mg/kg), the Vd was 14.2 ± 0.72 L/kg, the clearance was 36.8 mL/min/kg and the half-life is 5.71 ± 1.03 h. The same molecule displayed an AUC(0-t) in series [2] (mouse, plasma, iv, 10 mg/kg, mice, I.V.) of 4550 ± 220 ng·h/mL. The bioavailability in series [2] (mouse, plasma, oral, 20 mg/kg) is 20.3%. Moreover, in series [2] (mouse, plasma, po, 20 mg/kg), the concentration peaked (Cmax) at 130 ± 50 ng/mL, the Tmax worked out at 6.67 ± 2.31 h and the half-life is 10.2 h. In series [2] (mouse, plasma, po, 20 mg/kg, mice, P.O.), the AUC(0-t) came to 1720 ± 850 ng·h/mL. In addition, in the series with LDLR, the LDLR protein level result was “increased in a concentration-dependent manner”.
